Where two headings read alike, the source gives them in different places.
Tests used:
[1] = system: RLS subjects; settings: for IRLS Total (Absolute Change) Mean / IRLS Total (Absolute Change) Median / IRLS Total (Percent Change) Mean / IRLS Total (Percent Change) Median / IRLS Total Mean / IRLS Total Median: rasagiline 1 mg/day oral
Procedure: (§1) This was the first clinical study in which rasagiline was administered to RLS subjects. The dosage regimen of 1 mg/day rasagiline was chosen based on the optimal dosage regimen for the symptomatic treatment of PD. […] Therefore, in the event that a subject could not tolerate the 1 mg daily dose of rasagiline, a daily dose of 0.5 mg rasagiline was permitted. Rasagiline was administered orally as a tablet. Both the 1 mg and 0.5 mg rasagiline tablets were beveled round tablets, flat, white to off-white, scored on one side, plain on the other side. Teva Pharmaceutical Industries Ltd. was responsible for the manufacture and primary packaging of study medications according to current Good Manufacturing Practice (cGMP) principles and guidelines applicable to investigational medicinal products.
IRLS (International Restless Legs Scale)
The IRLS scale is comprised of 10 items designed to assess the severity of sensory and motor symptoms, sleep disturbance, daytime somnolence, and impact on activities of daily living and mood associated with RLS. All items receive a grade in the range 0 to 4 (0=absence of a problem, 4=very severe problem) giving a maximum score of 40.
The investigator scored subjects on the IRLS at all scheduled study visits. The primary efficacy endpoint was based on the change from baseline to weeks 2, 4, and 8 in IRLS scores.
Each of 10 items were graded on a scale between 0 and 4 where 0 denotes the absence of a problem, and 4 a very severe problem.

[2] = system: early Parkinson's disease subjects; settings: rasagiline-treated subjects; cited from earlier work
[3] = system: RLS subjects; settings: for IRLS QoL Total (Absolute Change) Mean / IRLS QoL Total (Absolute Change) Median / IRLS QoL Total (Percent Change) Mean / IRLS QoL Total (Percent Change) Median / IRLS QoL Total Mean / IRLS QoL Total Median: rasagiline 1 mg/day oral
Procedure: as §1
The Restless Leg Syndrome Quality of Life questionnaire (RLS QoL) assesses the impact of RLS on daily life, emotional well-being, social life and work life. It is an 18-item questionnaire with a total score ranging 0 to 100. […] The lower the score, the greater the impact of RLS on quality of life.
The RLS QoL questionnaire was completed by the investigator at the baseline and Week 4, and 8 visits. The change from baseline to each post-baseline study visit was calculated as an additional efficacy endpoint.

## C#CCN[C@@H]1CCc2ccccc21 [rasagiline, R-(+)-N-propargyl-1-aminoindan]
[1]; VISIT WEEK 1, N=2
  IRLS Total (Absolute Change) Mean: −3.00
  IRLS Total (Absolute Change) Median: −3.00
  IRLS Total (Percent Change) Mean: −11.54%
  IRLS Total (Percent Change) Median: −11.54%
  IRLS Total Mean: 29.00
  IRLS Total Median: 29.00
[1]; VISIT WEEK 3, N=1
  IRLS Total (Absolute Change) Mean: −14.00
  IRLS Total (Absolute Change) Median: −14.00
  IRLS Total (Percent Change) Mean: −53.85%
  IRLS Total (Percent Change) Median: −53.85%
  IRLS Total Mean: 12.00
  IRLS Total Median: 12.00
[1]; VISIT WEEK 4, N=2
  IRLS Total (Absolute Change) Mean: −6.50
  IRLS Total (Absolute Change) Median: −6.50
  IRLS Total (Percent Change) Mean: −25.00%
  IRLS Total (Percent Change) Median: −25.10%
  IRLS Total Mean: 25.50
  IRLS Total Median: 25.50
[1]; after 2 weeks, 2 subjects, baseline mean 32
  mean IRLS Rating Scale score: 29
[1]; at 4 weeks, one subject
  IRLS Rating Scale score: 13
  decrease from baseline in IRLS Rating Scale score: 50%
[1]; by 8 weeks, remaining subject
  IRLS score: 12
  decrease from baseline in IRLS score: 54%
[1]; in at least a subset of RLS patients
  effect on the symptoms of RLS: clinically significant effect
[1]; week 4, subject who discontinued, unchanged from baseline
  IRLS Rating Scale score: 38
[2]
  most commonly reported adverse events: pain, headache and dizziness
  side effects typical of dopaminergic medications (hallucinations, somnolence, edema, nausea, vomiting, diarrhea): infrequently reported
[3]; VISIT WEEK 4, N=2
  IRLS QoL Total (Absolute Change) Mean: 16.67
  IRLS QoL Total (Absolute Change) Median: 16.67
  IRLS QoL Total (Percent Change) Mean: 35.19%
  IRLS QoL Total (Percent Change) Median: 35.19%
  IRLS QoL Total Mean: 62.92
  IRLS QoL Total Median: 62.92
[3]; VISIT WEEK 8, N=1
  IRLS QoL Total (Absolute Change) Mean: 25.00
  IRLS QoL Total (Absolute Change) Median: 25.00
  IRLS QoL Total (Percent Change) Mean: 37.04%
  IRLS QoL Total (Percent Change) Median: 37.04%
  IRLS QoL Total Mean: 92.50
  IRLS QoL Total Median: 92.50
[3]; by eight weeks, remaining subject
  improvement in the IRLS Quality of Life Questionnaire compared to baseline: 37%

From patent publication US12310929B2, “Use of rasagiline for the treatment of restless legs syndrome” (TEVA PHARMACEUTICAL INDUSTRIES, LTD., priority 2006, dated 2025)
